“Also recorded” adds a separate entry of the source. Where no end group is shown, it is not given here. [ ]: non-standard residue; d: D form. pS = N[C@@H](COP(=O)(O)O)C(=O)O
Key:
[1] = Sequential screening of PDMS affixed OBOC bead array with three dyes; type: binding; settings: 100 μM dye in PBS, three dyes incubated sequentially on the same bead array
Description: Silicon Elastomer Base was mixed completely with Silicone Elastomer Curing Agent at ratio 10:1 in volume and the solution was kept in vacuum container for 15 to 20 minutes to eliminate the gas bubbles formed during the mixing process. After the removal of all residual bubbles, approximately 0.5-1 mL of PDMS solution was added into the bottom of a 60 mm culture dish. The dish was then spun on a single wafer spin processor (Laurell Technologies Corporation®, model WS-6505-6NPP/Lite) to evenly distribute the solution over the plates, at a speed of 4000 rpm for 30 s. A 5 μm layer of PDMS was formed on the bottom of dish and was cured at 80° C. for 5 min or at room temperature for 24 hrs to allow for beads immobilization. Knowing that the PDMS coating was about 5 μm thick and the radius of bead was around 45 μm, the percentage of free bead surface area was estimated by the formula of [1-2πrh/4πr^2]×100% (h=thickness of PDMS layer; r=radius of bead) to be approximately 95%. The library beads resuspended in 70% ethanol solution were first randomly placed on the surface of a glass plate that was 10% smaller than the dish used in the experiment. After the ethanol evaporated, a syringe needle was used to adjust the dry beads to evenly redistribute beads on the glass surface. Then the dish was inverted and the PDMS layer was pressed down onto the glass plate with beads. The library beads were embedded partly inside the PDMS layer.
(§1) Dye solutions were prepared in PBS to a 100 μM final concentration and 5 mL of each dye solution were added into the 60 mm dish with beads. Three dyes were tested sequentially. The dish was kept swirling at 60 rpm on the rotator. The dye binding was monitored for 90 minutes, and then the dye solution was removed from the dishes and PBS was added to rinse the beads on the bottom to remove the color dye. The PBS solution was changed every 30 min and the dish was always swirled as above. The beads color change was also observed and recorded at certain time interval during the whole wash process to collect data of color dissociation. Before adding the next dye solution, beads were washed with 70% ethanol to completely remove residual dye and were rinsed with PBS solution three times afterwards.
(§2) A representative positive bead for each color was selected for the color binding and dissociation study. A series of images were taken at different time points during the binding and washing process. From the images taken, regions of interest (ROI) with the same size were picked up from the color beads and colorless control beads. The value from the control bead was subtracted from the color bead to get quantitated color value for each single color bead. The measure of the color intensity for each color dye was performed using the Kodak Image Station 2000MM.
The PDMS affixed bead array was incubated with three different dyes sequentially. […] Eleven beads were selected for further analysis based on their characteristic binding profiles (FIG. 2). […] The amino acid sequences of the peptides bound to the beads were determined (Table 1).

[2] = Real time association and dissociation of dye to bead (color intensity); type: binding
Description: as §1, §2
(§3) With the PDMS affixed bead method, it is possible to dynamically observe the peptide-dye interaction on each individual immobilized bead in real time. To further characterize the binding profile for each of the target/sequence interactions, beads #1, #4 and #10 were selected for binding and dissociation study with each respective target dye, by measuring the intensity of the resulting color accumulation on the bead surface at different time points. The values obtained for color intensity across progressing time points were plotted and the profiles for the three dye/bead interactions were compared. The association and dissociation rate of each organic dye to its respective binding peptide was evaluated. […]

[3] = Titration of immobilized peptides on TentaGel beads with MG in presence and absence of 2 mM Ca2+; type: binding; settings: presence vs absence of 2 mM Ca2+, peptide on bead
Description: (§4) Two peptides that can activate MG with or without calcium sensitivity were selected for further characterization. A solution form of the two peptides were synthesized and titrated with MG in the presence of 2 mM Ca^2+. Fluorescent signal at 650 nm was measured. […] Computational modeling confirmed stably folded structure of peptide 12 upon MG binding, preventing intramolecular motions of MG (FIG. 8B, FIG. 10A, B). […] The immobilized peptides on TentaGel beads were then titrated with an increasing amount of MG in the presence and absence of 2 mM Ca^2+. Fluorescent emission at 650 nm by each individual bead was measured. […] Computational modeling further confirmed that stably folded structure of peptide 2 only forms upon calcium binding (FIG. 11B).

[4] = system: HEK293 cells; assay: Dual-color confocal imaging of Cerulean-linker-peptide fusion proteins with MG and acetylcholine; type: cell-based
Description: To evaluate the utility of lead peptides in mammalian cells, individual peptide tags were fused to the C-terminus of a cyan fluorescence protein (Cerulean 3) anchored on the plasma membrane. An amino acid linker (GGSGSGGS: SEQ ID NO:33) was placed between C-terminus of Cerulean and the peptide to increase the solubility and stability of the recombinant fusion proteins. Goals for the design of fusion proteins are two-folds. First, the labeling ability of peptides can be readily detected by co-localization of both cyan and infrared fluorescence. Second, the calcium sensing ability of peptide can be tested by taking advantage of endogenous acetylcholine (Ach) receptors; Ach stimulus leads to transient calcium influx in cytosol, which may lead to increased MG fluorescence. Given the limited membrane permeability of MG, a relative high concentration of MG (5×10^−7 M) was used for the imaging assay. 48 hrs post-transfection, time-lapse, dual-color confocal fluorescence microscopy images were taken upon MG incubation, followed by Ach addition. […] The fluorescence intensity reached plateau within seconds and remains stable during the 10 mins period of imaging window. In contrast, no apparent infrared fluorescence was observed when membrane-anchored Cerulean control (without grafted peptide) was expressed upon MG addition (FIG. 15A). […]

[5] = Fluorescence titration of peptide in solution with MG, 2 mM Ca2+, 650 nm; type: binding
Description: as §4

[6] = MG binding of peptide ligands from screening and their derivatives; design: key to MG binding: −: no binding; +: weak binding; ++: mild binding; +++: strong binding; ++++: very strong binding; settings: 11 hour incubation with 5 μM MG in PBS buffer (pH 7.4)
[7] = Histone H2 tail OBOC library screening with DMHBI; type: binding; settings: library peptide fused to N-terminal H2
Description: An OBOC combinatorial library was prepared for the development of GESIs for probing histone H2 tail. The library design is shown in FIG. 20C, wherein X represents all 20 eukaryotic amino acids except for cysteine; all possible post-translational modification states of Ser-1 and Lys-5 are incorporated; and additional Xs at the N-terminus of the histone tail will provide necessary capturing residues for fluorescent dyes.

[8] = Real time association and dissociation of dye to bead (color intensity); type: binding; remark: listed apart in the source
Description: as §1, §2, §3

[9] = Fluorescent activation of MG by peptide compared with LTA2 and LTA10; type: binding; settings: preliminary data
Description: We expect to generate a toolbox of functional illuminant peptides that can be used in a broad range of biological applications. Translating the peptides identified in aim 1 to highly sensitive and specific functional illuminants in living cells, however, is more challenging. In this proposal, we will characterize the utility of these peptides in live cells with an emphasis on phosphorylation (Aim 2) and histone epigenetics (Aim 3). As indicated above, we plan to design and synthesize a series of dyes candidates for GESI development. We are cognizant that many organic dyes bind non-specifically to many proteins, but usually at rather high concentration (mM). […] It is also important to realize that not all binding events will activate fluorescence. […] This works in our favor as not all non-specific binding (if there is any) will lead to activation of the dyes. One concern that the previous reviewers have was the large number of Trp in our initial leads (e.g. LTA2 and LTA10). As shown in the preliminary data, many strong activators for MG have low number of Trp. For example, fluorescent activation of MG by LRRAS(P)LFYGMWYPST (SEQ ID NO:227), with only 1 Trp, is 4-5× brighter than that of LTA2 and LTA10.

With “CNSPDIC (not fully specified (bridges); cysteine pairing not given here; also: bead-bound) [Bead #1]” the Dye binding ([1]; listed as # 1) was “Malachite green”, the Dye binding ([1]; listed as #1) was “only bind to malachite green; also recorded: bind only to malachite green” and the “Time after which color had not completely diminished (dissociation)” value ([2]; after washing) was greater than 72 h.

For “DWWWDGFERLEE (synthetic genetically encoded small illuminant (GESI) malachite green (MG) binding Peptide 2)”, the “Increase of MG binding affinity by calcium” value [3] was “about 10 fold”, the “Increase of MG binding affinity by calcium” value ([3]; listed as peptide 2) was 10 fold and the “Sensitivity to calcium upon acetylcholine stimulation” value [4] was “showed sensitivity to calcium”. For the same substance, the “Increase of MG fluorescence intensity upon Ach addition” value ([4]; living cells) was 4 fold, the “Binding characteristics in solution studies” value [5] was “strong binding characteristics” and the MG binding [6] was “++”.

For GLFDQES(P)GRGK (GLFDQE[pS]GRGK), the DMHBI activation [7] was “DMHBI activating”.

With DPSWPNS(P)GRGK(Ac) (DPSWPN[pS]GRGK(Ac)) the DMHBI activation [7] was “DMHBI activating”.

For TRPSMWS(P)GRGK(Ac) (TRPSMW[pS]GRGK(Ac)), the DMHBI activation [7] was “DMHBI activating”.

For “CHTHILC (not fully specified (bridges); cysteine pairing not given here; also: bead-bound) [Bead #4]”, the Dye binding ([1]; listed as # 4) was “Bromocresol”, the Dye binding ([1]; listed as #4) was “only bind to bromocresol purple; also recorded: bind only to bromocresol purple” and the “Time to maximum color binding” value ([8]; bead incubated with bromocresol purple) was “around 75 minutes”. For the same substance, the “Time until color disappeared (dissociation)” value ([8]; washing) was no more than 72 h.

For VWDGIRS(P)GRGK(Ac) (VWDGIR[pS]GRGK(Ac)), the DMHBI activation [7] was “DMHBI activating”.

In the case of LRRAS(P)LFYGMWYPST (LRRA[pS]LFYGMWYPST), the “Fluorescent activation of MG, brightness relative to LTA2 and LTA10” value [9] is reported as 4-5 ×.

With “CKWILPC (not fully specified (bridges); cysteine pairing not given here; also: bead-bound) [Bead #10]” the Dye binding ([1]; listed as #10) was “bind to both indigo carmine and bromocresol purple”, the “Binding and dissociation rates compared with indigo carmine” value ([8]; bromocresol purple) was “much slower” and the “Time until colorization was seen” value ([2]; bead incubated with indigo carmine) was “within five minutes”. For the same substance, the “Time until color completely gone (dissociation)” value ([2]; washing with PBS) was 20 min.

Reference: patent US10598667B2, “Functional illumination in living cells” (The Regents of the University of California, priority 2013, dated 2020)
